Test results: patent US20260285875A1, “INHIBITORS OF PARG” (858 Therapeutics, Inc., priority 2023, published 2026)

Biological target: T1, cellular PARG (Homo sapiens, UniProt Q86W56)
T1 construct: endogenous in cells; host or cells: HeLa
Assay: Nuclear PAR accumulation assay (immunofluorescence high-content imaging, MMS-treated HeLa cells)
Type: cell-based
Conditions: 1 hour compound then MMS 50 μg/mL for an additional hour
Summary of the method: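 HeLa cells pretreated with compound for 1 h at 37° C, then given 50 μg/mL MMS for another hour. After methanol fixation, PAR was immunostained with DAPI nuclear counterstain; per-nucleus intensity and percent PAR-positive cells were imaged at 20× (≥1,000 cells/well). IC50 from four-parameter logistic fit.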

T1 sequence (Q86W56 whole entry): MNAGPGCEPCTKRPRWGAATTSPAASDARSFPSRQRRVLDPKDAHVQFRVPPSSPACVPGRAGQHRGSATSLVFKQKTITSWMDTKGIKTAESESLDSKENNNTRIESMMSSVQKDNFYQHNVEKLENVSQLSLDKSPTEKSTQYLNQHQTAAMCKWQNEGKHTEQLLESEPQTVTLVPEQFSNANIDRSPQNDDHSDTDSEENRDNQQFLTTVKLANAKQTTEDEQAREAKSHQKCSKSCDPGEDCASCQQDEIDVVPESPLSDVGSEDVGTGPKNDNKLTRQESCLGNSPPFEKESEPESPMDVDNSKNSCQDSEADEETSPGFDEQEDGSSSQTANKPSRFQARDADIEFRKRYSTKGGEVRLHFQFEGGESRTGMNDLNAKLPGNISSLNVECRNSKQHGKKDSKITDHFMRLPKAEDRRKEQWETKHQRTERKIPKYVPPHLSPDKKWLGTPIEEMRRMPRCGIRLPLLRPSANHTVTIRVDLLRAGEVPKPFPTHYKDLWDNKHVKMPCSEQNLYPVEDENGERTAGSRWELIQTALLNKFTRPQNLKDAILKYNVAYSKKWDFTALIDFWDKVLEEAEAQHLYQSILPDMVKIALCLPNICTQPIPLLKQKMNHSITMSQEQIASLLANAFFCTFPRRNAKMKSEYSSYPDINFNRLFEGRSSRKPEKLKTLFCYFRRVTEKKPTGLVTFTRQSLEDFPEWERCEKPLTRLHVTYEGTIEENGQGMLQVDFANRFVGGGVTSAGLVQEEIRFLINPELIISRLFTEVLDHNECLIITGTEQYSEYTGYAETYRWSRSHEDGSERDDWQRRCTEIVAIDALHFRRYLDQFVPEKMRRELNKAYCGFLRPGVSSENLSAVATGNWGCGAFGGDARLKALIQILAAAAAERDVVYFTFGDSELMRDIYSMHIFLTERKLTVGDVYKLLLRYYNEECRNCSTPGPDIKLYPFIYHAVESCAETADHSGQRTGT

| SMILES | IC50 [nM] |
| --- | --- |
| COc1ccc(CN2C(=O)c3cc(S(=O)(=O)NC4(C)CC4)ccc3N3C2=NC[C@H]3C)cc1 [Example 9, (R)-4-(4-methoxybenzyl)-1-methyl-N-(1-methylcyclopropyl)-5-oxo-1,2,4,5-tetrahydroimidazo[1,2-a]quinazoline-7-sulfonamide] | 100 to 1000 |
| CCc1noc(C)c1CN1C(=O)c2cc(S(=O)(=O)NC3(C)CC3)ccc2N2C1=NC[C@H]2C [Example 5, (R)-4-((3-ethyl-5-methylisoxazol-4-yl)methyl)-1-methyl-N-(1-methylcyclopropyl)-5-oxo-1,2,4,5-tetrahydroimidazo[1,2-a]quinazoline-7-sulfonamide] | < 100 |
| CN(C)CC#C[C@@H]1CN=C2N(C)C(=O)c3cc(S(=O)(=O)NC4(C)CC4)cc(Cl)c3N21 [Example 56, (R)-9-chloro-1-(3-(dimethylamino)prop-1-yn-1-yl)-4-methyl-N-(1-methylcyclopropyl)-5-oxo-1,2,4,5-tetrahydroimidazo[1,2-a]quinazoline-7-sulfonamide] | < 100 |
| CN1C(=O)c2cc(S(=O)(=O)NC3(C)CC3)c(F)cc2N2C1=NCC2C#Cc1cnc2cccnn12 (centres unmarked) [Example 215, 8-fluoro-1-(imidazo[1,2-b]pyridazin-3-ylethynyl)-4-methyl-N-(1-methylcyclopropyl)-5-oxo-1,2,4,5-tetrahydroimidazo[1,2-a]quinazoline-7-sulfonamide] | < 100 |
| Cc1noc(C2CC2)c1CN1C(=O)c2cc(S(=O)(=O)NC3(C)CC3)ccc2N2C1=NC[C@H]2C [Example 8, (R)-4-((5-cyclopropyl-3-methylisoxazol-4-yl)methyl)-1-methyl-N-(1-methylcyclopropyl)-5-oxo-1,2,4,5-tetrahydroimidazo[1,2-a]quinazoline-7-sulfonamide] | < 100 |
| C[C@@H]1CN(c2cc(S(=O)(=O)NC3(C)CC3)cc3c2N2C(=NC[C@H]2C)N(Cc2cnn(C)c2)C3=O)C[C@@H](C)N1 [Example 88, (R)-9-((3R,5R)-3,5-dimethylpiperazin-1-yl)-1-methyl-4-((1-methyl-1H-pyrazol-4-yl)methyl)-N-(1-methylcyclopropyl)-5-oxo-1,2,4,5-tetrahydroimidazo[1,2-a]quinazoline-7-sulfonamide] | < 100 |
| C[C@@H]1CN=C2N(Cc3cccnc3C#N)C(=O)c3cc(S(=O)(=O)NC4(C)CC4)c(F)cc3N21 [Example 223, (R)-4-((2-cyanopyridin-3-yl)methyl)-8-fluoro-1-methyl-N-(1-methylcyclopropyl)-5-oxo-1,2,4,5-tetrahydroimidazo[1,2-a]quinazoline-7-sulfonamide] | 100 to 1000 |
| CN1C(=O)c2cc(S(=O)(=O)NC3(C)CC3)ccc2N2C1=NC[C@H]2C#Cc1ccc2nn(C)cc2c1 [Example 142, (R)-4-methyl-1-((2-methyl-2H-indazol-5-yl)ethynyl)-N-(1-methylcyclopropyl)-5-oxo-1,2,4,5-tetrahydroimidazo[1,2-a]quinazoline-7-sulfonamide] | < 100 |
| CN1C(=O)c2cc(S(=O)(=O)NC3(C)CC3)ccc2N2C1=NCC2C#Cc1cnsc1 (centres unmarked) [Example 179, 1-(isothiazol-4-ylethynyl)-4-methyl-N-(1-methylcyclopropyl)-5-oxo-1,2,4,5-tetrahydroimidazo[1,2-a]quinazoline-7-sulfonamide] | < 100 |
| CC1(NS(=O)(=O)c2ccc3c(c2)C(=O)N(Cc2cnn4c2CNCC4)C2=N[C@H]4CCC[C@H]4N23)CC1 [Example 290, (7aS,10aR)-N-(1-methylcyclopropyl)-5-oxo-6-((4,5,6,7-tetrahydropyrazolo[1,5-a]pyrazin-3-yl)methyl)-6,7a,8,9,10,10a-hexahydro-5H-cyclopenta[4,5]imidazo[1,2-a]quinazoline-3-sulfonamide] | 100 to 1000 |
| C#C[C@@H]1CN=C2N(C)C(=O)c3cc(S(=O)(=O)NC4(C)CC4)cc(Cl)c3N21 [Example 51, (R)-9-chloro-1-ethynyl-4-methyl-N-(1-methylcyclopropyl)-5-oxo-1,2,4,5-tetrahydroimidazo[1,2-a]quinazoline-7-sulfonamide] | < 100 |
| CN1CCN(C2(C#C[C@@H]3CN=C4N(C)C(=O)c5cc(S(=O)(=O)NC6(C)CC6)ccc5N43)CC2)CC1 [Example 229, (R)-4-methyl-N-(1-methylcyclopropyl)-1-((1-(4-methylpiperazin-1-yl)cyclopropyl)ethynyl)-5-oxo-1,2,4,5-tetrahydroimidazo[1,2-a]quinazoline-7-sulfonamide] | 100 to 1000 |
| Cc1cccc(C#CC2CN=C3N(C)C(=O)c4cc(S(=O)(=O)NC5(C)CC5)ccc4N32)n1 (centres unmarked) [Example 225, 4-methyl-N-(1-methylcyclopropyl)-1-((6-methylpyridin-2-yl)ethynyl)-5-oxo-1,2,4,5-tetrahydroimidazo[1,2-a]quinazoline-7-sulfonamide] | < 100 |
| CN1C(=O)c2cc(S(=O)(=O)NC3(C)CC3)ccc2N2C1=NCC2C#Cc1cnn2c1OCC1(COC1)C2 (centres unmarked) [Example 178, 1-((5′H,7′H-spiro[oxetane-3,6′-pyrazolo[5,1-b][1,3]oxazin]-3′-yl)ethynyl)-4-methyl-N-(1-methylcyclopropyl)-5-oxo-1,2,4,5-tetrahydroimidazo[1,2-a]quinazoline-7-sulfonamide] | 100 to 1000 |

More lines, now with the values ahead:

| IC50 [nM] | SMILES |
| --- | --- |
| < 100 | [2H]C([2H])(c1cnn(C)c1)N1C(=O)c2cc(S(=O)(=O)NC3(C)CC3)ccc2N2C1=NC[C@H]2C#CC1(N(CC)CC)CC1 [Example 241, (R)-1-((1-(diethylamino)cyclopropyl)ethynyl)-4-((1-methyl-1H-pyrazol-4-yl)methyl-d2)-N-(1-methylcyclopropyl)-5-oxo-1,2,4,5-tetrahydroimidazo[1,2-a]quinazoline-7-sulfonamide] |
| < 100 | Cn1cc(CN2C(=O)c3cc(S(=O)(=O)NC4(C)CC4)ccc3N3C2=NCC3COc2ccccc2F)cn1 (centres unmarked) [Example 151, 1-((2-fluorophenoxy)methyl)-4-((1-methyl-1H-pyrazol-4-yl)methyl)-N-(1-methylcyclopropyl)-5-oxo-1,2,4,5-tetrahydroimidazo[1,2-a]quinazoline-7-sulfonamide] |
| 100 to 1000 | Cn1cc(CN2C(=O)c3cc(S(=O)(=O)NC4(C)CC4)ccc3N3C2=NCC3COc2ccc(C#N)cc2)cn1 (centres unmarked) [Example 135, 1-((4-cyanophenoxy)methyl)-4-((1-methyl-1H-pyrazol-4-yl)methyl)-N-(1-methylcyclopropyl)-5-oxo-1,2,4,5-tetrahydroimidazo[1,2-a]quinazoline-7-sulfonamide] |
| < 100 | CCC[C@@H]1CN=C2N(Cc3cnn(C)c3)C(=O)c3cc(S(=O)(=O)NC4(C)CC4)ccc3N21 [Example 122, (R)-4-((1-methyl-1H-pyrazol-4-yl)methyl)-N-(1-methylcyclopropyl)-5-oxo-1-propyl-1,2,4,5-tetrahydroimidazo[1,2-a]quinazoline-7-sulfonamide] |
| 1000 to 10000 | C[C@@H]1CN=C2N(Cc3cnn(C)c3)C(=O)c3cc(S(=O)(=O)NC4(C)CC4)cc(N4CC(C)(C#N)C4)c3N21 [Example 146, (R)-9-(3-cyano-3-methylazetidin-1-yl)-1-methyl-4-((1-methyl-1H-pyrazol-4-yl)methyl)-N-(1-methylcyclopropyl)-5-oxo-1,2,4,5-tetrahydroimidazo[1,2-a]quinazoline-7-sulfonamide] |
| 1000 to 10000 | C[C@@H]1CN=C2N(Cc3cnn(C)c3)C(=O)c3cc(S(=O)(=O)NC4(C)CC4)cc(N4CCN[C@@H](C)C4)c3N21 [Example 82, (R)-1-methyl-4-((1-methyl-1H-pyrazol-4-yl)methyl)-N-(1-methylcyclopropyl)-9-((S)-3-methylpiperazin-1-yl)-5-oxo-1,2,4,5-tetrahydroimidazo[1,2-a]quinazoline-7-sulfonamide] |
| < 100 | [2H]C([2H])(c1cnn(C)c1)N1C(=O)c2cc(S(=O)(=O)NC3(C)CC3)ccc2N2C1=NC[C@H]2C#Cc1cnn(C)c1 [Example 97, (R)-1-((1-methyl-1H-pyrazol-4-yl)ethynyl)-4-((1-methyl-1H-pyrazol-4-yl)methyl-d2)-N-(1-methylcyclopropyl)-5-oxo-1,2,4,5-tetrahydroimidazo[1,2-a]quinazoline-7-sulfonamide] |
| < 100 | [2H]C([2H])(c1cnn(C)c1)N1C(=O)c2cc(S(=O)(=O)NC3(C)CC3)ccc2N2C1=NC[C@H]2C#CC1(C)CC1 [Example 49, (R)-4-((1-methyl-1H-pyrazol-4-yl)methyl-d2)-N-(1-methylcyclopropyl)-1-((1-methylcyclopropyl)ethynyl)-5-oxo-1,2,4,5-tetrahydroimidazo[1,2-a]quinazoline-7-sulfonamide] |
| 100 to 1000 | C[C@@H]1CN=C2N(Cc3cnn(C)c3)C(=O)c3cc(S(=O)(=O)NC4(C)CC4)cc(N4CCNCC4)c3N21 [Example 13, (R)-1-methyl-4-((1-methyl-1H-pyrazol-4-yl)methyl)-N-(1-methylcyclopropyl)-5-oxo-9-(piperazin-1-yl)-1,2,4,5-tetrahydroimidazo[1,2-a]quinazoline-7-sulfonamide] |
| < 100 | Cn1cc(CN2C(=O)c3cc(S(=O)(=O)NC4(C)CC4)ccc3N3C2=NCC3COc2ccon2)cn1 (centres unmarked) [Example 150, 1-((isoxazol-3-yloxy)methyl)-4-((1-methyl-1H-pyrazol-4-yl)methyl)-N-(1-methylcyclopropyl)-5-oxo-1,2,4,5-tetrahydroimidazo[1,2-a]quinazoline-7-sulfonamide] |
| < 100 | C#CC1(C)CN=C2N(Cc3cnn(C)c3)C(=O)c3cc(S(=O)(=O)NC4(C)CC4)ccc3N21 (single isomer, unassigned) [Example 272, 1-ethynyl-1-methyl-4-((1-methyl-1H-pyrazol-4-yl)methyl)-N-(1-methylcyclopropyl)-5-oxo-1,2,4,5-tetrahydroimidazo[1,2-a]quinazoline-7-sulfonamide] |
| 100 to 1000 | C[C@@H]1CN=C2N(Cc3cnn(C)c3)C(=O)c3cc(S(=O)(=O)NC4(C)CC4)cc(C4CCN(C)CC4)c3N21 [Example 22, (R)-1-methyl-4-((1-methyl-1H-pyrazol-4-yl)methyl)-N-(1-methylcyclopropyl)-9-(1-methylpiperidin-4-yl)-5-oxo-1,2,4,5-tetrahydroimidazo[1,2-a]quinazoline-7-sulfonamide] |
